{"source": "patent US20240108634A1", "about": "“COMPOSITIONS AND METHODS FOR INHIBITING YAP” (The United States Government as represented by the …, priority 2021, published 2024)", "key": {"full-length human YAP1": {"molecular_target": "T1, full-length human YAP1 (Homo sapiens, UniProt P46937)", "T1 construct": "purified recombinant HA-tagged full-length human YAP1; made in house", "T1 sequence (P46937 whole entry, the tested form may be a part)": "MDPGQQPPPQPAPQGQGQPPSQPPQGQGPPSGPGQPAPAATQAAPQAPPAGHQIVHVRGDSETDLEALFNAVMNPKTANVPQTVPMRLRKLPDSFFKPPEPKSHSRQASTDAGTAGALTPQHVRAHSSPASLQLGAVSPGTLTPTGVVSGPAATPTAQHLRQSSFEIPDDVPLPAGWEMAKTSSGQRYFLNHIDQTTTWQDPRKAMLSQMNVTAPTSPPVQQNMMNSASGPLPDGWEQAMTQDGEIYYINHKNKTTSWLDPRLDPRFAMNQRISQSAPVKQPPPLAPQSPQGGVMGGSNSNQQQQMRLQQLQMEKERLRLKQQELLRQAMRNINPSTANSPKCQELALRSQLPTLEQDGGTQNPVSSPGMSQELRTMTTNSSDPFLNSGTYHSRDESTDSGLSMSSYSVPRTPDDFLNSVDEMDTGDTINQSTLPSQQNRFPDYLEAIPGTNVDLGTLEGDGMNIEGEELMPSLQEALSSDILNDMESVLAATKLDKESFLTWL", "experiment": "Inhibitor-coupled bead binding of recombinant HA-tagged YAP", "details": "immunoblot of bound HA-YAP", "experimental": "FIGS. 1A-G show the identification of a YAP1-TEAD1 binding interface inhibitor. […] The Gal4 DBD was fused to residues 50-171 of human YAP1 and the Gal4 AD was fused to residues 194-411 of human TEAD1. These fusions were expressed in yeast containing reporters harboring Gal4 upstream activating sequences (UAS). […] Yeast expressing either p53-DBD and SV40 large T antigen-AD fusions or YAP1-DBD and TEAD1-AD fusions were plated on selective media. Compounds were pinned onto the plate surfaces by robotic transfer and subsequently examined for halo formation (indicated by red circles). […] Pull-down products were analyzed by SDS-PAGE and silver staining. […] Raw binding sensorgrams obtained at each concentration were fitted to a 1:1 binding model and Kon, Koff and KD were calculated by simultaneous non-linear regression analyses.\nProtein and mRNA analyses, immunoprecipitation, in vitro bead-coupled inhibitor binding assays and HPLC analyses. […] Antigen-antibody complexes were detected using appropriate horseradish peroxidase-conjugated secondary antibodies (GE Healthcare) and enhanced chemiluminescence (Amersham ECL Prime). […] For quantitative RT-PCR, extraction of RNA was performed using Trizol® (Life Technologies). Total RNA was then quantified and integrity assessed using an Agilent 2100 Bioanalyzer (Agilent Technology). […]"}, "LN229 and GBM39 cells": {"tested_on": "LN229 and GBM39 cells", "experiment": "Boyden chamber migration towards vitronectin or fibronectin", "type": "cell-based, human", "details": "vitronectin or fibronectin versus BSA-coated chambers", "description": "Cells were layered in soft agar to evaluate anchorage-independent growth in the presence of the indicated concentrations of inhibitor and colonies counted following 14 days of growth. Representative crystal violet stained images are shown below. Data represent mean+S.D. of three independent experiments. […] Cells were placed in Boyden chambers and allowed to migrate towards BSA (white bars), vitronectin (light yellow bars), or fibronectin (dark yellow bars) (*, P<0.05; n=3). […] Representative crystal violet stained images are shown (200×). Data represent mean+S.D. of three independent experiments. […] Graphical data shown below represent mean+S.D. (late apoptosis; annexin V-positive, PI-positive) of three independent experiments.\nCell proliferation, clonogenic, migration, invasion and apoptosis assays. Cell proliferation was determined via Cell Titer-Glo® luminescent cell assays (Promega). Clonogenic assays were done by plating a total of 1,000 cells per well in 24-well plates in a total volume of 400 μL using a two-layered soft agar system as previously described (Masri J, et al. (2007) Cancer Res 67: 11712-11720). Cell migration assays were conducted using precoated modified Boyden chambers as previously described (Benavides-Serrato A, et al. (2017) PLoS One 12: e0176599). […]"}}, "data": [{"smiles": "COc1ccc(-c2cc(-c3ccccc3)nc3c2CC(=O)Nc2ccccc2-3)cc1OC", "note": "[NSC682769]", "values": [{"measurement": "Binding of YAP to compound-coupled beads", "setting": "full-length human YAP1", "result": "associated strongly"}, {"measurement": "Cell migration", "setting": "LN229 and GBM39 cells", "result": "inhibited the number of cells capable of migrating"}]}]}
